One compound from patent US9994554B2, “Barbiturate and thiobarbiturate compounds for use in cancer therapy” (NUHOPE, LLC, priority 2011, dated 2018) can be followed below.

Series [1] deals with MCF10A. The series can be described thus: Cytotoxicity, MCF10A. The settings on record: immortalized, non-transformed mammary epithelial cell line. The series is classed as cell-based, human.
Series [2] relates to A549 cells. The series can be described thus: pXC50 on A549 cells (later tests). The series is classed as cell-based.
Series [3] has as its target T1, topoisomerase IIα (Homo sapiens, UniProt P11388). Nature of the series: kDNA decatenation assay. Type of series: biochemical. The source says: To assess whether CC-I is a human topoisomerase IIα inhibitor, we determined the ability of CC-I to inhibit topoisomerase IIα activity using a kDNA decatenation assay.
In series [4] the target is T1, topoisomerase IIα. Nature of the series: Supercoiled pHOT1 DNA relaxation assay. Type of series: biochemical.
The subject of series [5] is OVCAR-3. The series can be described thus: Cytotoxicity, ovarian cancer cells. The settings on record: human ovarian carcinoma cell line. The series is classed as cell-based. As to the method:
To assess the effect of CC-I on the ovarian cancer cells, the cells were cultured overnight at a density of 5,000 to 10,000 cells per well in 96 well plates. Then the cells were treated with different concentrations of CC-I (Formula IV) or Formula V for another 3-6 days before cytotoxicity assay using MTS or SRB assay. The IC50 or LD50, 50% inhibition or lethal dose, of compounds is also determined using statistical software (GraphPad) as a general indicator of toxicity.

Series [6] deals with Human Astrocyte (Normal cells). Nature of the series: Cytotoxicity, normal human astrocytes. The series is classed as cell-based. As to the method:
The human astrocyte cells were cultured from brains of deceased amyotrophic lateral sclerosis (ALS) patients (Uniform Anatomic Gift Act of 1987). The cerebrum was isolated from the other brain regions and meninges and placed in calcium and magnesium-free Hank's buffered salt solution (CMF-HBSS). The cerebrum was diced, incubated with trypsin/EDTA (Gibco BRL, Grand Island, N.Y.) and triturated with DNase. Tissue was passed through a 135 μm Nitex screen (SEFAR America, Depew, N.Y.), washed twice with CMF-HBSS, re-suspended in media (DMEM/10% FBS, 7.5 mM glucose, 4 mM L-glutamine, 1,000 U/mL penicillin, […], 2.5 μg/mL amphotericin B), centrifuged and passed through two sets of 35 μm Nitex screens. Dissociated cells was plated in poly-D-lysine pre-coated 175 cm^2 flasks. The mixed glial cultures were grown for 14 days, and then shaken to dislodge microglia cells and oligodendrocytes that were discarded. The pure astrocytes were attached to the bottom of the flask.

Series [7] deals with MCF7. Nature of the series: Cytotoxicity, MCF7. The series is classed as cell-based. The settings on record: human breast adenocarcinoma cell line.
Procedure: (§2) Human neuroblastoma cell lines were cultured in Dulbecco's Modified Eagle Medium (DMEM)/F12 media. Human glioma cells were ordered from American Type Culture Collection (ATCC, Manassas, Va.), and maintained in DMEM with 4×10^−3M L-glutamine, 100 U/ml penicillin, 100 μg/ml streptomycin, and 10% fetal bovine serum (FBS). All experiments were performed at 37° C. in 5% CO2 atmosphere under cell culture conditions. Prior to γ-radiation or exposure to chemotherapeutic agents, the glioma cells were plated at a density of 156 to 8,000 cells per well in 96 well plates to account for differences in growth rates, and to obtain similar cell densities for the experimental manipulations, and cultured overnight. […] Cell cytotoxicity assay was determined by MTS [3-(4,5-dimethylthiazol-2-yl)-5-(3-carboxymethoxyphenyl)-2-(4-sulfophenyl)-2H-tetrazolium, inner salt] Cell Proliferation Assay (Promega, Madison, Wis.) or sulforhodamine B (SRB) assay at the end of the exposure period (47, 48).
In series [8] the test system is C282Y HFE variant expressing neuroblastoma SH-SY5Y cells. Nature of the series: SCID mouse subcutaneous neuroblastoma tumor model. The settings on record: 25 mg/kg i.p. once a week for 7 weeks. As to the method:
To determine the effect of CC-I on neuroblastoma, an in vivo subcutaneous tumor model in SCID mice was examined. One month old, female SCID mice were injected subcutaneously in the flank region with a Temodar®- and radiation-resistant C282Y HFE variant expressing neuroblastoma SH-SY5Y cells. After the tumor attained a volume of 32 mm^3, CC-I (25 mg/kg) was injected intraperitoneally once a week for 7 weeks.

Series [9] has as its system NF215. Nature of the series: Cytotoxicity, NF215 neurofibroma cells. The series is classed as cell-based, human. As to the method:
(§1) Cells of established neurofibroma cell lines were plated at a density of 2000-4000 cells per well in 96 well plates under standard cell culture conditions (54) and then exposed to CC-I for 2 days.

Series [10] concerns WT/SH-SY5Y. Nature of the series: Cytotoxicity, WT/SH-SY5Y neuroblastoma. The series is classed as cell-based. The note with it: wild type HFE transfected human neuroblastoma SH-SY5Y.
Procedure: as §2
For series [11], the system named is ST88. The series can be described thus: Cytotoxicity, ST88 neurofibroma cells. Type of series: cell-based, human. As to the method:
as §1

For series [12], the system named is U87-MG. The series can be described thus: cells. As to the method:
Human neuroblastoma cell lines were cultured in Dulbecco's Modified Eagle Medium (DMEM)/F12 media. Human glioma cells were ordered from American Type Culture Collection (ATCC, Manassas, Va.), and maintained in DMEM with 4×10^−3M L-glutamine, 100 U/ml penicillin, 100 μg/ml streptomycin, and 10% fetal bovine serum (FBS). All experiments were performed at 37° C. in 5% CO2 atmosphere under cell culture conditions. Prior to γ-radiation or exposure to chemotherapeutic agents, the glioma cells were plated at a density of 156 to 8,000 cells per well in 96 well plates to account for differences in growth rates, and to obtain similar cell densities for the experimental manipulations, and cultured overnight. Then cells received different dosages of γ-radiation from a ^60Co source GammaCell 220 (Nordion International Inc, Ontario, Canada) or chemotherapeutic agents for another 2-6 days. Cell cytotoxicity assay was determined by MTS [3-(4,5-dimethylthiazol-2-yl)-5-(3-carboxymethoxyphenyl)-2-(4-sulfophenyl)-2H-tetrazolium, inner salt] Cell Proliferation Assay (Promega, Madison, Wis.) or sulforhodamine B (SRB) assay at the end of the exposure period (47, 48).
Chemotype moiety compounds of CC-I were also tested on the Temodar-resistant CCF-STTG1 and Temodar®-sensitive U87-MG cell lines. The glioma cell culture and treatment is as described above.
The human glioma CCF-STTG1 cell lines were plated at a density of 5,000 cells per well in 96 well plates under standard DMEM cell culture conditions and then exposed to different concentrations of CC-I, merbarone, or ICRF-193 for 5 days. Merbarone and ICRF-193 are both topoisomerase II inhibitors (55, 56).

The subject of series [13] is BREC. Nature of the series: Cytotoxicity, bovine retinal endothelial cells. The series is classed as cell-based. As to the method: Bovine retinal endothelial cells (BRECs) were isolated and processed according to a previously published procedure (49, 50). In brief, BREC was grown in MCDB-131 media (Sigma, St) supplemented with 10% FBS, 10 ng/mL EGF, 0.2 mg/mL ENDO GRO (VEC Technologies, Inc.), 0.09 mg/ml heparin, and antibiotic/antimycotic (Invitrogen).

The subject of series [14] is SVGp12. Nature of the series: Cytotoxicity, SVGp12. Type of series: cell-based. The settings on record: SV40 transformed human astrocyte cell line.
Procedure: as §2
The target in series [15] is human topoisomerase I (Homo sapiens, UniProt P11387). Nature of the series: Supercoiled pBR322 DNA relaxation assay. The series is classed as biochemical. The settings on record: concentrations as high as 50 μg/ml. The source says: To determine whether CC-I is a specific inhibitor of topoisomerase I or IIα, the ability of CC-I to inhibit topoisomerases I and IIα activity was examined using a supercoiled DNA relaxation assay.

Series [16] has as its system U251. Nature of the series: Cytotoxicity (MTS or SRB assay), U251. The series is classed as cell-based. The note with it: human astrocytoma or glioblastoma cell line. Background: Tetrazolium dyes change colour on reduction, which living cells bring about.
Procedure: as §2

T1 sequence (P11388 whole entry): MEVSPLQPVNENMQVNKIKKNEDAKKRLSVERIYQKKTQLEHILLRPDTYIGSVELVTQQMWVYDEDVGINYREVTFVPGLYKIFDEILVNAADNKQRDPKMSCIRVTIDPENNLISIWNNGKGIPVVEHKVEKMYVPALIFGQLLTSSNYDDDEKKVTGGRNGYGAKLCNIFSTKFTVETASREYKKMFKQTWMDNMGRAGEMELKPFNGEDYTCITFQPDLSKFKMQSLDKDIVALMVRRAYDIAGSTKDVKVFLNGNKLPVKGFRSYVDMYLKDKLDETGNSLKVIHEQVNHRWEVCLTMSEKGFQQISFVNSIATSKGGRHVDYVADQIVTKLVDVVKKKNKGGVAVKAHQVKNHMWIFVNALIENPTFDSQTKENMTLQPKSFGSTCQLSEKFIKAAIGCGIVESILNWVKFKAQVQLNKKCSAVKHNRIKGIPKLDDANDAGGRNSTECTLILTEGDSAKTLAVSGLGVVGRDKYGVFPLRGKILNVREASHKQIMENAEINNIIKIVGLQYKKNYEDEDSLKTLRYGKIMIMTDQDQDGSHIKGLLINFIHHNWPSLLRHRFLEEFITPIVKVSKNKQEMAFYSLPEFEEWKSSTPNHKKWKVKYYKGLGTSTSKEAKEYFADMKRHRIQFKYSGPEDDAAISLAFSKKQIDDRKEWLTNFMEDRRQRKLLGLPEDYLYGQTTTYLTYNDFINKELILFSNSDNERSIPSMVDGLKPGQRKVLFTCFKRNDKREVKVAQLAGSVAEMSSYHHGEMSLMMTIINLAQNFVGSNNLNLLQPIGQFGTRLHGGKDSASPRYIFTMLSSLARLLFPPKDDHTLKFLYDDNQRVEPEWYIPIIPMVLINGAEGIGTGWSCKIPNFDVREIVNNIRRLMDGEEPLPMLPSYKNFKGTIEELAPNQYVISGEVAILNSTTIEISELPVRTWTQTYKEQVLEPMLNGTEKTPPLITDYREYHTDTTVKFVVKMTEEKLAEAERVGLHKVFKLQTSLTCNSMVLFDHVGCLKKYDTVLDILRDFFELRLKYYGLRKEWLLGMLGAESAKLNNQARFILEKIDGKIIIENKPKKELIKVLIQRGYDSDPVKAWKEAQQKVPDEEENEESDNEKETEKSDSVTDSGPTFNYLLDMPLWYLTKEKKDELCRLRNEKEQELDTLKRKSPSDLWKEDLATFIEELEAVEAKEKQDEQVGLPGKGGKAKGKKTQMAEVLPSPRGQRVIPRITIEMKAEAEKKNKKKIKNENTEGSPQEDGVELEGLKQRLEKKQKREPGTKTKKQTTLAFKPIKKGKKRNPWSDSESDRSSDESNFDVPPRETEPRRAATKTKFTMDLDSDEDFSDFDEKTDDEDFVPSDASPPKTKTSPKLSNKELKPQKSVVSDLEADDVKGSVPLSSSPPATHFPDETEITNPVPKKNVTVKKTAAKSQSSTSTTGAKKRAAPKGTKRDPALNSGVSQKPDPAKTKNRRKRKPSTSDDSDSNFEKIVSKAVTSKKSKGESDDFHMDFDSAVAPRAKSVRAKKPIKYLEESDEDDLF
human topoisomerase I, sequence (P11387 whole entry): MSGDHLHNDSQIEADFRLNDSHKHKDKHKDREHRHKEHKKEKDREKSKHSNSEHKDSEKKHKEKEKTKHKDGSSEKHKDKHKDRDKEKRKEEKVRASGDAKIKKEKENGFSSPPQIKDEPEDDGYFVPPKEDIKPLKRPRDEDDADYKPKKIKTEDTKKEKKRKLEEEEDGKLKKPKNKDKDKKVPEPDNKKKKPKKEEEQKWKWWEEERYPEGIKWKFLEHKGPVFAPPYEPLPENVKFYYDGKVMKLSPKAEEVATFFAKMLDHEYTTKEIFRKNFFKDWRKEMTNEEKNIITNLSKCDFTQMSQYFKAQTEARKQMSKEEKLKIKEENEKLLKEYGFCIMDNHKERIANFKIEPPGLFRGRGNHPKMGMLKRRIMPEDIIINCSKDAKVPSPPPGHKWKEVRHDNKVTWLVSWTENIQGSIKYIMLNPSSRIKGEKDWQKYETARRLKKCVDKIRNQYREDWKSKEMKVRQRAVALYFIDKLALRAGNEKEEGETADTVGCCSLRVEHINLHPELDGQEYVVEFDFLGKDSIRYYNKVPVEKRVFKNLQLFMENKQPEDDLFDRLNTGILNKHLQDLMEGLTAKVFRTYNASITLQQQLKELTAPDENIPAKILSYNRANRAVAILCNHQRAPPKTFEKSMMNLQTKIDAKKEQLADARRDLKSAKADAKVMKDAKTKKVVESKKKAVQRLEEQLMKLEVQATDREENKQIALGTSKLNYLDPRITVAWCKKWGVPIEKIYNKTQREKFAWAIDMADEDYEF

One may read the IC50 as the midpoint of a concentration-inhibition curve. In the case of `CCN1C(=O)C(=C/C=C/c2ccco2)C(=O)NC1=S` [CC-I], the IC50 is 6.5 µM in series [1]; 3.5 µM in series [5]; 16.4 µM in series [6] (normal cells); 15.6 µM in series [7]; 5.1 µM in series [9] (human neurofibroma cell line); 3.3 µM in series [10]. The IC50 in series [11] (human neurofibroma cell line) worked out at 7.5 µM; in series [12] (read-out: IC50 (μM) U87-MG, human astrocytoma or glioblastoma cell line) it was 3.9 µM; in series [13] (bovine retinal endothelial cell) it was 46.9 µM; in series [14], 4.2 µM; in series [16] it was 3.8 µM. Besides, in [2], the pXC50 turned out to be 4.5. The “concentration completely inhibiting topoisomerase IIα catalyzed kDNA decatenation” value in series [3] is recorded as “greater than 6 μg/ml”. Besides, the “concentration completely inhibiting topoisomerase IIα catalyzed pHOT1 relaxation” value in [4] was “greater than 3 μg/ml”. In addition, the “most effective concentration on topoisomerase IIα activity” value in series [4] was found to be 3 µg/mL. Moreover, the “toxicity to normal human astrocytes” value in series [6] (at concentrations toxic to Temodar-resistant glioma cells) is reported as “not toxic”. In addition, the body weight entry in series [8] is “unaffected”. The “liver or kidney toxicity” value in series [8] is recorded as “No liver or kidney toxicity”. In [8] (SCID mice), the tumor growth entry is listed as “completely inhibited tumor growth”. Also, the LD50 came to 1.4 µg/mL in series [9] (NF215 neurofibroma cells, 2 days exposure) and 2.1 µg/mL in series [11] (ST88 neurofibroma cells, 2 days exposure). Moreover, the “cytotoxicity compared with merbarone or ICRF-193” value in [12] (U87-MG, 5 days) is recorded as “more cytotoxic”. The “toxicity to bovine retinal endothelial cells (BREC)” value in [13] (model for the blood-brain-barrier) is recorded as “not toxic”. Moreover, the “effect on topoisomerase I activity” value in series [15] is “no effect”.
